Tested on: healthy subjects
Experiment: Clinical liver safety laboratory data over time
Assay type: in vivo, human
Details: mean (SD)

With `COc1cnc(C(=O)Nc2ccc(F)c([C@]34CN(c5ncc(F)cn5)C[C@H]3CSC(N)=N4)c2)cn1` [LY3202626] as the compound, how does the ALP (1 mg daily, Day 1 predose) read?
The ALP was 62.8 (7.6) U/L.

And the ALT (1 mg daily, Day 1 predose)?
The ALT was 19.0 (11.8) U/L.

What about the AST (1 mg daily, Day 1 predose) of the same compound?
Its AST is 18.4 (6.7) U/L.

And the Albumin (1 mg daily, Day 1 predose)?
The Albumin was 43.9 (1.5) g/L.

What about the GGT (1 mg daily, Day 1 predose) of the same compound?
The GGT was 22.3 (14.8) U/L.

What about the “Total Bilirubin” value (1 mg daily, Day 1 predose) of the same compound?
The value was 10.7 (2.8) umol/L.

What about the ALP (1 mg daily, Day 2) of the same compound?
The ALP was 62.2 (8.7) U/L.

What about the ALT (1 mg daily, Day 2) of the same compound?
Its ALT is 18.9 (11.8) U/L.

What about the AST (1 mg daily, Day 2) of the same compound?
Its AST is 18.4 (6.5) U/L.

What about the Albumin (1 mg daily, Day 2) of the same compound?
Its Albumin is 43.8 (3.0) g/L.

And the GGT (1 mg daily, Day 2)?
The GGT was 21.8 (15.6) U/L.

And the “Total Bilirubin” value (1 mg daily, Day 2)?
The value was 10.7 (2.6) umol/L.

What about the ALP (1 mg daily, Day 3) of the same compound?
Its ALP is 62.3 (8.4) U/L.

What about the ALT (1 mg daily, Day 3) of the same compound?
Its ALT is 18.7 (10.6) U/L.

And the AST (1 mg daily, Day 3)?
The AST was 16.1 (4.7) U/L.

And the Albumin (1 mg daily, Day 3)?
The Albumin was 43.1 (2.4) g/L.

And the GGT (1 mg daily, Day 3)?
The GGT was 20.9 (13.9) U/L.

What about the “Total Bilirubin” value (1 mg daily, Day 3) of the same compound?
The value was 8.9 (2.3) umol/L.

What about the ALP (1 mg daily, Day 4) of the same compound?
The ALP was 64.7 (10.7) U/L.

What about the ALT (1 mg daily, Day 4) of the same compound?
The ALT was 20.4 (10.1) U/L.

And the AST (1 mg daily, Day 4)?
Its AST is 19.6 (5.5) U/L.

And the Albumin (1 mg daily, Day 4)?
Its Albumin is 44.0 (2.4) g/L.

What about the GGT (1 mg daily, Day 4) of the same compound?
Its GGT is 21.4 (14.5) U/L.

And the “Total Bilirubin” value (1 mg daily, Day 4)?
The value was 7.4 (4.2) umol/L.

What about the ALP (1 mg daily, Day 6) of the same compound?
Its ALP is 61.0 (10.9) U/L.

And the ALT (1 mg daily, Day 6)?
The ALT was 18.9 (7.0) U/L.

And the AST (1 mg daily, Day 6)?
Its AST is 17.7 (4.8) U/L.

What about the Albumin (1 mg daily, Day 6) of the same compound?
Its Albumin is 43.1 (2.4) g/L.

And the GGT (1 mg daily, Day 6)?
The GGT was 19.4 (11.8) U/L.

And the “Total Bilirubin” value (1 mg daily, Day 6)?
The value was 8.5 (4.5) umol/L.

What about the ALP (1 mg daily, Day 8) of the same compound?
The ALP was 62.4 (11.3) U/L.

And the ALT (1 mg daily, Day 8)?
The ALT was 20.8 (8.4) U/L.

And the AST (1 mg daily, Day 8)?
The AST was 21.3 (13.2) U/L.

What about the Albumin (1 mg daily, Day 8) of the same compound?
Its Albumin is 44.1 (2.0) g/L.

And the GGT (1 mg daily, Day 8)?
The GGT was 18.8 (11.5) U/L.

What about the “Total Bilirubin” value (1 mg daily, Day 8) of the same compound?
The value was 7.9 (5.0) umol/L.

And the ALP (1 mg daily, Day 10)?
The ALP was 62.6 (10.0) U/L.

What about the ALT (1 mg daily, Day 10) of the same compound?
Its ALT is 24.6 (19.6) U/L.

And the AST (1 mg daily, Day 10)?
The AST was 30.2 (39.0) U/L.

And the Albumin (1 mg daily, Day 10)?
The Albumin was 43.3 (2.2) g/L.

And the GGT (1 mg daily, Day 10)?
The GGT was 18.7 (11.3) U/L.

And the “Total Bilirubin” value (1 mg daily, Day 10)?
Its value is 7.2 (2.1) umol/L.

And the ALP (1 mg daily, Day 12)?
The ALP was 62.1 (9.7) U/L.

What about the ALT (1 mg daily, Day 12) of the same compound?
The ALT was 24.2 (21.2) U/L.

What about the AST (1 mg daily, Day 12) of the same compound?
The AST was 26.2 (29.7) U/L.

And the Albumin (1 mg daily, Day 12)?
Its Albumin is 43.2 (1.5) g/L.

What about the GGT (1 mg daily, Day 12) of the same compound?
The GGT was 18.0 (9.9) U/L.

What about the “Total Bilirubin” value (1 mg daily, Day 12) of the same compound?
The value was 8.0 (2.8) umol/L.

And the ALP (1 mg daily, Day 14)?
The ALP was 61.3 (10.6) U/L.

And the ALT (1 mg daily, Day 14)?
Its ALT is 22.8 (17.2) U/L.

What about the AST (1 mg daily, Day 14) of the same compound?
Its AST is 20.2 (13.1) U/L.

And the Albumin (1 mg daily, Day 14)?
Its Albumin is 43.6 (2.6) g/L.

And the GGT (1 mg daily, Day 14)?
The GGT was 18.0 (10.1) U/L.

And the “Total Bilirubin” value (1 mg daily, Day 14)?
Its value is 9.1 (2.7) umol/L.

And the ALP (1 mg daily, Day 15)?
The ALP was 59.6 (9.6) U/L.

What about the ALT (1 mg daily, Day 15) of the same compound?
Its ALT is 20.8 (15.5) U/L.

What about the AST (1 mg daily, Day 15) of the same compound?
The AST was 18.3 (9.7) U/L.

And the Albumin (1 mg daily, Day 15)?
Its Albumin is 42.6 (2.2) g/L.

What about the GGT (1 mg daily, Day 15) of the same compound?
Its GGT is 18.2 (11.0) U/L.

What about the “Total Bilirubin” value (1 mg daily, Day 15) of the same compound?
Its value is 9.2 (2.5) umol/L.

And the ALP (1 mg daily, Day 17)?
Its ALP is 63.9 (10.6) U/L.

And the ALT (1 mg daily, Day 17)?
The ALT was 23.2 (12.8) U/L.

And the AST (1 mg daily, Day 17)?
Its AST is 19.3 (6.0) U/L.

And the Albumin (1 mg daily, Day 17)?
The Albumin was 46.0 (2.8) g/L.

And the GGT (1 mg daily, Day 17)?
Its GGT is 20.1 (11.8) U/L.

What about the “Total Bilirubin” value (1 mg daily, Day 17) of the same compound?
Its value is 8.2 (4.0) umol/L.

What about the ALP (6 mg daily, Day 1 predose) of the same compound?
Its ALP is 64.6 (16.9) U/L.

And the ALT (6 mg daily, Day 1 predose)?
Its ALT is 17.6 (5.5) U/L.

And the AST (6 mg daily, Day 1 predose)?
Its AST is 18.9 (4.0) U/L.

What about the Albumin (6 mg daily, Day 1 predose) of the same compound?
Its Albumin is 45.0 (1.7) g/L.

And the GGT (6 mg daily, Day 1 predose)?
Its GGT is 21.6 (10.7) U/L.

What about the “Total Bilirubin” value (6 mg daily, Day 1 predose) of the same compound?
The value was 8.9 (3.6) umol/L.

What about the ALP (6 mg daily, Day 2) of the same compound?
The ALP was 66.4 (20.2) U/L.

What about the ALT (6 mg daily, Day 2) of the same compound?
The ALT was 17.8 (3.8) U/L.

What about the AST (6 mg daily, Day 2) of the same compound?
The AST was 18.0 (3.0) U/L.

What about the Albumin (6 mg daily, Day 2) of the same compound?
The Albumin was 45.8 (2.5) g/L.

And the GGT (6 mg daily, Day 2)?
The GGT was 21.7 (9.5) U/L.

What about the “Total Bilirubin” value (6 mg daily, Day 2) of the same compound?
The value was 9.8 (4.5) umol/L.

What about the ALP (6 mg daily, Day 3) of the same compound?
The ALP was 65.8 (18.6) U/L.

And the ALT (6 mg daily, Day 3)?
Its ALT is 18.9 (4.7) U/L.

What about the AST (6 mg daily, Day 3) of the same compound?
The AST was 17.8 (2.9) U/L.

And the Albumin (6 mg daily, Day 3)?
The Albumin was 46.3 (2.1) g/L.

What about the GGT (6 mg daily, Day 3) of the same compound?
Its GGT is 22.3 (11.2) U/L.

And the “Total Bilirubin” value (6 mg daily, Day 3)?
Its value is 7.4 (3.1) umol/L.

What about the ALP (6 mg daily, Day 4) of the same compound?
Its ALP is 67.8 (18.4) U/L.

What about the ALT (6 mg daily, Day 4) of the same compound?
The ALT was 20.9 (5.2) U/L.

What about the AST (6 mg daily, Day 4) of the same compound?
The AST was 19.8 (4.7) U/L.

What about the Albumin (6 mg daily, Day 4) of the same compound?
The Albumin was 47.0 (1.9) g/L.

And the GGT (6 mg daily, Day 4)?
Its GGT is 24.0 (11.0) U/L.

And the “Total Bilirubin” value (6 mg daily, Day 4)?
The value was 6.9 (2.4) umol/L.

And the ALP (6 mg daily, Day 6)?
Its ALP is 63.9 (17.8) U/L.

What about the ALT (6 mg daily, Day 6) of the same compound?
Its ALT is 18.9 (4.4) U/L.

What about the AST (6 mg daily, Day 6) of the same compound?
Its AST is 19.7 (4.9) U/L.

What about the Albumin (6 mg daily, Day 6) of the same compound?
Its Albumin is 45.3 (2.7) g/L.

What about the GGT (6 mg daily, Day 6) of the same compound?
Its GGT is 22.0 (10.8) U/L.

And the “Total Bilirubin” value (6 mg daily, Day 6)?
The value was 8.4 (4.0) umol/L.

And the ALP (6 mg daily, Day 8)?
The ALP was 64.6 (17.6) U/L.

And the ALT (6 mg daily, Day 8)?
Its ALT is 18.6 (2.5) U/L.

What about the AST (6 mg daily, Day 8) of the same compound?
Its AST is 20.8 (6.2) U/L.

Reference: article PMC8842743 (Journal of Alzheimer's Disease Reports, 2022)
